Where “and” joins values, the source holds several entries; their conditions need not be identical. Equal values may be shown once.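 Protocol summary: plate cells (96-well), add compound at 5 concentrations, incubate 48 h, interpolate endpoints linearly. Here, GI50 denotes the concentration required for 50% inhibition of growth. TGI: total growth inhibition.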
Tests used:
Experiment in all cases: NCI tumour cell line growth inhibition, 48 h
A498 renal = system: A498 renal
CAKI-1 renal = system: CAKI-1 renal
COLO 205 colon = system: COLO 205 colon
HCC-2998 colon = system: HCC-2998 colon
IGROV1 ovarian = system: IGROV1 ovarian
MOLT-4 leukemia = system: MOLT-4 leukemia
OVCAR-4 ovarian = system: OVCAR-4 ovarian
OVCAR-5 ovarian = system: OVCAR-5 ovarian
SK-MEL-2 melanoma = system: SK-MEL-2 melanoma
TK-10 renal = system: TK-10 renal

Cc1c(Cl)cccc1NC1=C(Cl)C(=O)N(Cc2ccccc2)C1=O
GI50 (A498 renal): 11.7 µM
TGI (A498 renal): 24.8 µM
GI50 (CAKI-1 renal): 1.11 µM
TGI (CAKI-1 renal): 5.06 µM
GI50 (COLO 205 colon): 22.1 µM
TGI (COLO 205 colon): 57.2 µM
GI50 (HCC-2998 colon): 3.12 µM
TGI (HCC-2998 colon): 13.6 µM
GI50 (IGROV1 ovarian): 19.7 µM
TGI (IGROV1 ovarian): 56.5 µM
GI50 (MOLT-4 leukemia): 10.1 µM
TGI (MOLT-4 leukemia): 43 µM
GI50 (OVCAR-4 ovarian): 15.5 µM
TGI (OVCAR-4 ovarian): 34 µM
GI50 (OVCAR-5 ovarian): 17.6 µM
TGI (OVCAR-5 ovarian): 31.5 µM
GI50 (SK-MEL-2 melanoma): 27.5 µM
TGI (SK-MEL-2 melanoma): 89.9 µM
GI50 (TK-10 renal): 2.87 µM
TGI (TK-10 renal): 15.3 µM

OCC1OC(n2cnc3c(=S)nc[nH]c32)C(O)C1O (configuration not stated)
GI50 (A498 renal): 19.8 µM
TGI (A498 renal): > 2380 µM
GI50 (CAKI-1 renal): 6.94 µM
TGI (CAKI-1 renal): > 2500 µM
GI50 (COLO 205 colon): 8.34 µM
TGI (COLO 205 colon): > 2450 µM
GI50 (HCC-2998 colon): 2.46 µM
TGI (HCC-2998 colon): > 2500 µM
GI50 (IGROV1 ovarian): 12.2 µM
TGI (IGROV1 ovarian): 2490 µM and > 100 µM
GI50 (MOLT-4 leukemia): 2.58 µM
TGI (MOLT-4 leukemia): > 2500 µM
GI50 (OVCAR-4 ovarian): 4.05 µM
TGI (OVCAR-4 ovarian): > 2500 µM
GI50 (OVCAR-5 ovarian): 3.79 µM
TGI (OVCAR-5 ovarian): > 2500 µM
GI50 (SK-MEL-2 melanoma): > 100 µM
TGI (SK-MEL-2 melanoma): > 2500 µM
GI50 (TK-10 renal): 4.37 µM
TGI (TK-10 renal): > 2500 µM

CN(C)CC1CCCCCC(CN(C)C)C1=O (configuration not stated)
GI50 (A498 renal): 15.1 µM
TGI (A498 renal): 29.6 µM
GI50 (CAKI-1 renal): 1.49 µM
TGI (CAKI-1 renal): 3.12 µM
GI50 (COLO 205 colon): 1.2 µM
TGI (COLO 205 colon): 2.68 µM
GI50 (HCC-2998 colon): 17.1 µM
TGI (HCC-2998 colon): 33.3 µM
GI50 (IGROV1 ovarian): 15.1 µM
TGI (IGROV1 ovarian): 36.3 µM
GI50 (MOLT-4 leukemia): 2 µM
TGI (MOLT-4 leukemia): 5.51 µM
GI50 (OVCAR-4 ovarian): 3.4 µM
TGI (OVCAR-4 ovarian): 21.7 µM
GI50 (OVCAR-5 ovarian): 8.29 µM
TGI (OVCAR-5 ovarian): 22 µM
GI50 (SK-MEL-2 melanoma): 3.82 µM
TGI (SK-MEL-2 melanoma): 13.4 µM
GI50 (TK-10 renal): 0.852 µM
TGI (TK-10 renal): 2.13 µM

CCCOC(=O)CCn1c(SC)nc2[nH]cc(-c3ccccc3)c2c1=O
GI50 (A498 renal): 27.9 µM
TGI (A498 renal): 87.9 µM
GI50 (CAKI-1 renal): 19.6 µM
TGI (CAKI-1 renal): 54 µM
GI50 (COLO 205 colon): 19.1 µM
TGI (COLO 205 colon): 46.5 µM
GI50 (HCC-2998 colon): 73.5 µM
TGI (HCC-2998 colon): > 100 µM
GI50 (IGROV1 ovarian): 13.5 µM
TGI (IGROV1 ovarian): 49.6 µM
GI50 (MOLT-4 leukemia): 1.16 µM
TGI (MOLT-4 leukemia): 15.1 µM
GI50 (OVCAR-4 ovarian): 29.2 µM
TGI (OVCAR-4 ovarian): 95.8 µM
GI50 (OVCAR-5 ovarian): > 100 µM
TGI (OVCAR-5 ovarian): > 100 µM
GI50 (SK-MEL-2 melanoma): 25.5 µM
TGI (SK-MEL-2 melanoma): 63.5 µM
GI50 (TK-10 renal): 47.3 µM
TGI (TK-10 renal): > 100 µM

Nc1nc(N)c(N=O)c(OCC2CCCCC2)n1
TGI (A498 renal): 43 µM and 50.2 µM
GI50 (CAKI-1 renal): 3.99 µM
TGI (CAKI-1 renal): 34 µM and 78.9 µM
GI50 (COLO 205 colon): 15.1 µM
TGI (COLO 205 colon): 37.4 µM and 33.8 µM
GI50 (HCC-2998 colon): 22.5 µM
TGI (HCC-2998 colon): > 100 µM
GI50 (IGROV1 ovarian): 3.69 µM
TGI (IGROV1 ovarian): 24.1 µM and 24.5 µM
GI50 (MOLT-4 leukemia): 7.65 µM
TGI (MOLT-4 leukemia): > 100 µM and 51 µM
GI50 (OVCAR-4 ovarian): 6.03 µM
TGI (OVCAR-4 ovarian): > 75.5 µM
GI50 (OVCAR-5 ovarian): 17.2 µM
TGI (OVCAR-5 ovarian): > 100 µM and 57.8 µM
GI50 (SK-MEL-2 melanoma): 8.52 µM
TGI (SK-MEL-2 melanoma): 32.8 µM and 24.6 µM
GI50 (TK-10 renal): 15.9 µM
TGI (TK-10 renal): 57 µM and 34.5 µM

CC(C)N1C(NNC(=O)c2cnccn2)=NS(=O)(=O)c2ccccc21
GI50 (A498 renal): > 100 µM
TGI (A498 renal): > 100 µM
GI50 (CAKI-1 renal): > 100 µM
TGI (CAKI-1 renal): > 100 µM
GI50 (COLO 205 colon): > 100 µM
TGI (COLO 205 colon): > 100 µM
GI50 (HCC-2998 colon): > 100 µM
TGI (HCC-2998 colon): > 100 µM
GI50 (IGROV1 ovarian): > 100 µM
TGI (IGROV1 ovarian): > 100 µM
GI50 (MOLT-4 leukemia): > 100 µM
TGI (MOLT-4 leukemia): > 100 µM
GI50 (OVCAR-4 ovarian): > 100 µM
TGI (OVCAR-4 ovarian): > 100 µM
GI50 (OVCAR-5 ovarian): > 100 µM
TGI (OVCAR-5 ovarian): > 100 µM
GI50 (SK-MEL-2 melanoma): > 100 µM
TGI (SK-MEL-2 melanoma): > 100 µM
GI50 (TK-10 renal): > 100 µM
TGI (TK-10 renal): > 100 µM

CS/C(=N\c1nccs1)NC(=O)c1cccc(Cl)c1
TGI (A498 renal): > 100 µM
TGI (CAKI-1 renal): > 100 µM
TGI (COLO 205 colon): > 100 µM
TGI (HCC-2998 colon): > 100 µM
TGI (IGROV1 ovarian): > 100 µM
TGI (MOLT-4 leukemia): 89.6 µM
TGI (OVCAR-4 ovarian): > 100 µM
TGI (OVCAR-5 ovarian): > 100 µM
TGI (SK-MEL-2 melanoma): > 100 µM
TGI (TK-10 renal): > 100 µM

O=C(COc1cccc(/C=C2\COc3ccc(Cl)cc3C2=O)c1)c1ccc(Cl)cc1
GI50 (A498 renal): 13.8 µM
TGI (A498 renal): 27.1 µM
GI50 (CAKI-1 renal): 12.1 µM
TGI (CAKI-1 renal): 24.5 µM
GI50 (COLO 205 colon): 15 µM
TGI (COLO 205 colon): 29.8 µM
GI50 (HCC-2998 colon): 3.71 µM
TGI (HCC-2998 colon): 15.1 µM
GI50 (IGROV1 ovarian): 0.54 µM
TGI (IGROV1 ovarian): 3.7 µM
GI50 (MOLT-4 leukemia): 5.95 µM
TGI (MOLT-4 leukemia): 24.3 µM
GI50 (OVCAR-4 ovarian): 14.9 µM
TGI (OVCAR-4 ovarian): 31.5 µM
GI50 (OVCAR-5 ovarian): 13 µM
TGI (OVCAR-5 ovarian): 25.8 µM
GI50 (SK-MEL-2 melanoma): 7.4 µM
TGI (SK-MEL-2 melanoma): 21.1 µM
GI50 (TK-10 renal): 15.1 µM
TGI (TK-10 renal): 28.7 µM

CN(C)c1ccc(C(=C2C=CC(=[N+](C)C)C=C2)c2ccc(N(C)C)cc2)cc1
GI50 (A498 renal): 0.145 µM
TGI (A498 renal): 0.622 µM
GI50 (CAKI-1 renal): 0.249 µM
TGI (CAKI-1 renal): 0.788 µM and 2.43 µM
GI50 (COLO 205 colon): 0.0974 µM
TGI (COLO 205 colon): 0.447 µM and 0.751 µM
GI50 (HCC-2998 colon): 0.194 µM
TGI (HCC-2998 colon): 1.17 µM and 0.934 µM
GI50 (IGROV1 ovarian): 0.264 µM
TGI (IGROV1 ovarian): 2.26 µM and 1.4 µM
GI50 (MOLT-4 leukemia): 0.297 µM
TGI (MOLT-4 leukemia): 2.41 µM and 0.543 µM
TGI (OVCAR-4 ovarian): 1.05 µM
GI50 (OVCAR-5 ovarian): 0.295 µM
TGI (OVCAR-5 ovarian): 1.17 µM and 0.578 µM
TGI (SK-MEL-2 melanoma): 0.472 µM and 0.482 µM
GI50 (TK-10 renal): 0.162 µM
TGI (TK-10 renal): 0.864 µM

Source: PubChem BioAssay (NCI)
